Measurements reported in the supplement of paper PMC11061612.

Legend:
A172 (Glioblastoma) = experiment: combination Emax (second highest fraction inhibited in the dose matrix, 72 h); higher = more inhibition; extreme values may be limits of the assay
Summary of the method: (§1)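 After 24 hours at 37°C and 5% CO2 in 1536-well plates, cells in DMEM/F12 or RPMI plus 10% FBS received two-drug dose matrices for 72 hours. Viability came from CellTiter-Glo 2.0 luminescence and was scaled as inhibition, anchored at 0 by vehicle wells and at 1 by blank wells. Combination Emax is taken as the second-highest inhibition in the matrix, and Bliss excess as the observed combination effect less EA + EB − EA·EB, with EA and EB the single-agent effects.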

HCC38 (Breast Carcinoma) = experiment: as above
Summary of the method: as §1

[1] = test system: SLVL (B-Cell Non-Hodgkin's Lymphoma); experiment: as above
Summary of the method: as §1

MSTO-211H (Mesothelioma) = experiment: as above
Summary of the method: as §1

HuO9 (Osteosarcoma) = experiment: as above
Summary of the method: as §1

[2] = test system: MEG-01 (Chronic Myelogenous Leukemia); experiment: as above
Summary of the method: as §1

[3] = test system: JHH-6 (Hepatocellular Carcinoma); experiment: as above
Summary of the method: as §1

[4] = test system: MES-SA (Other Solid Carcinomas); experiment: as above
Summary of the method: as §1

[5] = test system: PA-TU-8902 (Pancreatic Carcinoma); experiment: as above
Summary of the method: as §1

SK-MEL-1 (Melanoma) = experiment: as above
Summary of the method: as §1

[6] = test system: NOMO-1 (Acute Myeloid Leukemia); experiment: as above
Summary of the method: as §1

[7] = test system: HCT-116 (Colorectal Carcinoma); experiment: as above
Summary of the method: as §1

[8] = test system: HLE (Hepatocellular Carcinoma); experiment: as above
Summary of the method: as §1

[9] = test system: BICR78 (Oral Cavity Carcinoma); experiment: as above
Summary of the method: as §1

D-392MG (Glioblastoma) = experiment: Bliss excess, mean over the matrix (fraction); higher = more synergy
Summary of the method: as §1

[10] = test system: SLVL (B-Cell Non-Hodgkin's Lymphoma); experiment: as above
Summary of the method: as §1

[11] = test system: SW48 (Colorectal Carcinoma); experiment: as above
Summary of the method: as §1

[12] = test system: SK-UT-1 (Other Solid Carcinomas); experiment: as above
Summary of the method: as §1

[13] = test system: HLE (Hepatocellular Carcinoma); experiment: as above
Summary of the method: as §1

[14] = test system: SNU-61 (Colorectal Carcinoma); experiment: as above
Summary of the method: as §1
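For Bliss excess, mean over the matrix in this document: after 72 h of two-drug dosing.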

Row | Compound | combination Emax (A172 (Glioblastoma)) | combination Emax (HCC38 (Breast Carcinoma)) | combination Emax [1] | combination Emax (MSTO-211H (Mesothelioma)) | combination Emax (HuO9 (Osteosarcoma)) | combination Emax [2] | combination Emax [3] | combination Emax [4] | combination Emax [5] | combination Emax (SK-MEL-1 (Melanoma)) | combination Emax [6] | combination Emax [7] | combination Emax [8] | combination Emax [9] | Bliss excess (D-392MG (Glioblastoma)) | Bliss excess [10] | Bliss excess [11] | Bliss excess [12] | Bliss excess [13] | Bliss excess [14]
1 | COc1cccc(OCCCN)c1-c1cc(Nc2cnc(C#N)cn2)n[nH]1 [Prexasertib] + Cc1cc2ncnn2cc1Nc1ncc2c(n1)n(C1CCOCC1)c(=O)n2C [AZD7648] (first compound max 1 µM, 7x7, partner max 10 µM) | 0.728 | 0.74 | 0.962 | 0.894 | 0.778 | 0.926 | 0.389 | 0.912 | 0.598 | 0.653 | 1 | 0.565 | 0.842 | 0.572 | -0.0254 | 0.0204 | -0.0344 | -0.0227 | -0.064 | -0.0123
2 | CC1(C)CCC(CN2CCN(c3ccc(C(=O)NS(=O)(=O)c4ccc(NCC5CCOCC5)c([N+](=O)[O-])c4)c(Oc4cnc5[nH]ccc5c4)c3)CC2)=C(c2ccc(Cl)cc2)C1 [Venetoclax] + Cn1cnc2c(F)c(Nc3ccc(Br)cc3Cl)c(C(=O)NOCCO)cc21 [Selumetinib] (first compound max 1 µM, 7x7, partner max 3 µM) | 0.206 | 0.109 | 0.735 | 0.172 | 0.177 | 0.868 | 0.222 | 0.138 | 0.26 | 0.872 | 0.994 | 0.506 | 0.191 | 0.323 | -0.0331 | 0.0299 | 0.0113 | 0.0043 | -0.0267 | 0.0136
3 | C=CCn1c(=O)c2cnc(Nc3ccc(N4CCN(C)CC4)cc3)nc2n1-c1cccc(C(C)(C)O)n1 [AZD1775] + C[C@@H]1COCCN1C2=NC(=NC(=C2)C3(CC3)[S@](=N)(=O)C)C4=C5C=CNC5=NC=C4 [AZD6738] (first compound max 1 µM, partner max 10 µM) | 0.81 | 0.712 | 0.917 | 0.85 | 0.94 | 0.935 | 0.553 | 0.852 | 0.49 | 0.55 | 0.978 | 0.757 | 0.886 | 0.667 | -0.04 | -0.0105 | 0.0642 | 0.0498 | -0.0148 | -0.051
4 | Cc1c2c(nn1C)CSCc1cc(n(C)n1)CSc1cc(c3ccccc3c1)OCCCc1c(C(=O)O)n(C)c3c-2c(Cl)ccc13 [AZD5991] + C[C@@H]1COCCN1C2=NC(=NC(=C2)C3(CC3)[S@](=N)(=O)C)C4=C5C=CNC5=NC=C4 [AZD6738] (first compound max 1 µM, 7x7, partner max 10 µM) | 0.679 | 0.688 | 0.873 | 0.688 | 1 | 0.931 | 0.416 | 0.762 | 0.26 | 0.226 | 0.995 | 0.63 | 0.802 | 0.612 | -0.0053 | 0.031 | -0.0259 | -0.0115 | 0.0075 | 0.0435
5 | C[C@@H]1COCCN1c1cc(C2([S@](C)(=N)=O)CC2)nc(-c2ccnc3[nH]ccc23)n1 [AZD6738] + O=C(c1cc(Cc2n[nH]c(=O)c3ccccc23)ccc1F)N1CCN(C(=O)C2CC2)CC1 [Olaparib] (first compound max 10 µM, 7x7, partner max 10 µM) | 0.717 | 0.611 | 0.834 | 0.705 | 0.857 | 0.908 | 0.263 | 0.643 | 0.195 | 0.312 | 0.908 | 0.78 | 0.981 | 0.615 | -0.0067 | -0.0355 | -0.0367 | 0.0408 | -0.0562 | -0.0019
6 | NC1(C(=O)N[C@@H](CCO)c2ccc(Cl)cc2)CCN(c2ncnc3[nH]ccc23)CC1 [Capivasertib] + CC(=O)c1c(C)c2cnc(Nc3ccc(N4CCNCC4)cn3)nc2n(C2CCCC2)c1=O [Palbociclib] (first compound max 10 µM, 7x7, partner max 10 µM) | 0.671 | 0.209 | 0.56 | 0.261 | 0.541 | 0.468 | 0.501 | 0.607 | 0.409 | 0.141 | 0.517 | 0.782 | 0.164 | 0.424 | 0.0094 | -0.024 | -0.0217 | -0.0009 | -0.002 | -0.0289
7 | Cc1c2c(nn1C)CSCc1cc(n(C)n1)CSc1cc(c3ccccc3c1)OCCCc1c(C(=O)O)n(C)c3c-2c(Cl)ccc13 [AZD5991] + Cc1cc2ncnn2cc1Nc1ncc2c(n1)n(C1CCOCC1)c(=O)n2C [AZD7648] (first compound max 1 µM, 7x7, partner max 10 µM) | 0.322 | 0.335 | 0.487 | 0.194 | 1 | 0.468 | 0.219 | 0.221 | 0.321 | 0.303 | 0.865 | 0.311 | 0.515 | 0.219 | -0.0664 | 0.0016 | -0.036 | -0.0252 | -0.0253 | -0.0446
